Results on 13 compounds are retold here after PubChem BioAssay (NCI).

“And” between values parts separate entries of the source, which are not always exact repeats. Equal entries are not always repeated.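 Where inhibition never reached the appropriate level, the endpoint shown equals the highest concentration tested. Otherwise, values were interpolated linearly from a five-concentration, 48-hour dose response in 96-well plates. At the GI50, growth is halved. TGI: total growth inhibition.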 A value given as a limit tells only on which side of the number the result lay.

Test systems include NCI/ADR-RES ovarian; SNB-75 CNS; HS 578T breast; A498 renal; OVCAR-4 ovarian; IGROV1 ovarian; KM12 colon; CAKI-1 renal; CCRF-CEM leukemia; HOP-62 NSCLC.
Common to all, as to assay: NCI tumour cell line growth inhibition, 48 h

With `Cc1ccc(C(=O)Nc2ccc(CP(=O)(O)O)cc2CP(=O)(O)O)cc1N`, the TGI in the assay on NCI/ADR-RES ovarian, with SNB-75 CNS, with HS 578T breast, in the assay with A498 renal, in the assay with OVCAR-4 ovarian and in the assay on IGROV1 ovarian was above 100 µM throughout. The TGI in the assay with KM12 colon, with CAKI-1 renal, in the assay with CCRF-CEM leukemia and with HOP-62 NSCLC was above 100 µM in each case.
For the compound `Cc1n[nH]c(=O)n1-n1cccc1`, the TGI in the assay on NCI/ADR-RES ovarian, with SNB-75 CNS, in the assay on HS 578T breast, with A498 renal, in the assay on OVCAR-4 ovarian and with IGROV1 ovarian was above 100 µM throughout. In addition, the TGI with KM12 colon, with CAKI-1 renal, in the assay with CCRF-CEM leukemia and in the assay on HOP-62 NSCLC was above 100 µM each time.
Consider `CC1(C)C(=O)/C(=C/c2ccccc2)C(C)(C)C1(C)C`, for which the TGI in the assay with NCI/ADR-RES ovarian was above 100 µM; with SNB-75 CNS, above 100 µM; with HS 578T breast, above 100 µM; in the assay with A498 renal, above 96.2 µM; in the assay with OVCAR-4 ovarian, above 100 µM; in the assay with IGROV1 ovarian, above 100 µM. The TGI was above 100 µM with KM12 colon, above 100 µM with CAKI-1 renal, above 71.5 µM with CCRF-CEM leukemia and 98.9 µM in the assay with HOP-62 NSCLC.
Consider `N#Cc1cc(F)cc(Oc2ccc(S(=O)(=O)C(F)F)c3c2CC(F)(F)[C@H]3O)c1`, for which the GI50 is 26.4 µM in the assay with NCI/ADR-RES ovarian; 12.6 µM in the assay on SNB-75 CNS; 28.5 µM with HS 578T breast; 20.6 µM in the assay on A498 renal; 19 µM in the assay on OVCAR-4 ovarian; 37.4 µM in the assay on IGROV1 ovarian. The GI50 was 44.8 µM in the assay on KM12 colon, 27.7 µM with CAKI-1 renal, 22.9 µM with CCRF-CEM leukemia and 51.1 µM in the assay with HOP-62 NSCLC. Moreover, the TGI was above 100 µM in the assay on NCI/ADR-RES ovarian; 67.3 µM in the assay with SNB-75 CNS; above 100 µM in the assay with HS 578T breast; 73.6 µM in the assay with A498 renal; 91.7 µM with OVCAR-4 ovarian; above 100 µM in the assay on IGROV1 ovarian. In addition, the TGI in the assay with KM12 colon, in the assay on CAKI-1 renal, in the assay with CCRF-CEM leukemia and in the assay with HOP-62 NSCLC was above 100 µM each time.
For the compound `CC(=O)Oc1cc2c(cc1OCC(F)(F)F)[C@H]1CC[C@]3(C)[C@@H](OC(C)=O)CC[C@H]3[C@@H]1CC2=O`, the TGI is 43.6 µM with NCI/ADR-RES ovarian; 52.3 µM with SNB-75 CNS; 50.4 µM with HS 578T breast; 27 µM with A498 renal; 63.8 µM in the assay with OVCAR-4 ovarian; above 66.8 µM with IGROV1 ovarian. Further, the TGI in the assay with KM12 colon is 74.9 µM; with CAKI-1 renal, 47 µM; with CCRF-CEM leukemia, 40.1 µM; in the assay with HOP-62 NSCLC it was above 70 µM.
On to `CC[C@]1(c2ccc3c(c2)OCO3)C=[N+]([O-])O[C@H](OC2CCCC2(c2ccccc2)c2ccccc2)[C@@H]1OC(C)=O` (some centres undefined), for which the TGI is 4.88 µM in the assay with NCI/ADR-RES ovarian; 5.93 µM in the assay on SNB-75 CNS; above 100 µM with HS 578T breast; 2.94 µM in the assay with A498 renal; 10.1 µM with OVCAR-4 ovarian; above 21.5 µM in the assay with IGROV1 ovarian. In addition, the TGI was 3.62 µM with KM12 colon, above 100 µM in the assay with CAKI-1 renal, above 64.6 µM in the assay with CCRF-CEM leukemia and 5.38 µM with HOP-62 NSCLC.
Consider `O=C(/C=C/c1ccccc1)c1cc(CN2CCOCC2)c(O)c(CN2CCOCC2)c1`, for which the TGI was above 100 µM in the assay with NCI/ADR-RES ovarian; 38.9 µM in the assay on SNB-75 CNS; above 100 µM in the assay with HS 578T breast; 28.2 µM with A498 renal; above 100 µM in the assay with IGROV1 ovarian; 33.1 µM with KM12 colon. In addition, the TGI worked out at 4.36 µM in the assay on CAKI-1 renal, 16.7 µM with CCRF-CEM leukemia and 39.3 µM in the assay with HOP-62 NSCLC.
For the compound `CCc1c(O)nc(Nc2nc3ccccc3[nH]2)[nH]c1=O`, the TGI in the assay on NCI/ADR-RES ovarian, in the assay on SNB-75 CNS, with HS 578T breast, with A498 renal, with OVCAR-4 ovarian and with IGROV1 ovarian was above 100 µM throughout. Further, the TGI in the assay on CCRF-CEM leukemia and in the assay with HOP-62 NSCLC was above 100 µM throughout.
For the compound `C[n+]1c2ccccc2n2c3ccccc3c(NCCCn3ccnc3)c(C#N)c21`, the TGI with NCI/ADR-RES ovarian was above 93.5 µM; with SNB-75 CNS, 4.66 µM; with HS 578T breast it was 6.78 µM; with A498 renal it was 46.5 µM; with OVCAR-4 ovarian it was 7.42 µM; in the assay on KM12 colon it was 17.7 µM. Further, the TGI with CAKI-1 renal is above 43.1 µM; in the assay on HOP-62 NSCLC, above 27 µM.
Turning to `CCCCCCCCCCCC1=C(O)C(=O)C(CC2=C(O)C(=O)C(CCCCCCCCCCC)=C(O)C2=O)=C(O)C1=O`, the TGI in the assay on NCI/ADR-RES ovarian is above 100 µM; with SNB-75 CNS, 37.5 µM; in the assay with HS 578T breast it was above 100 µM; in the assay with A498 renal, 98.2 µM; with OVCAR-4 ovarian, above 100 µM; in the assay on IGROV1 ovarian it was above 100 µM. Also, the TGI is above 100 µM with KM12 colon, above 100 µM with CAKI-1 renal and 64.4 µM in the assay on CCRF-CEM leukemia.
With `COC(=O)C(Cc1ccccc1)NC(=O)C(CNC(=O)OCc1ccccc1)C(=O)OCc1ccccc1` (centres undefined), the TGI in the assay with NCI/ADR-RES ovarian, with SNB-75 CNS, in the assay with HS 578T breast, in the assay on A498 renal, with IGROV1 ovarian and in the assay on KM12 colon was above 100 µM in each case. Besides, the TGI in the assay with CAKI-1 renal is above 100 µM; in the assay on CCRF-CEM leukemia, above 100 µM; in the assay with HOP-62 NSCLC, 39.9 µM and > 100 µM. Moreover, the GI50 in the assay on HS 578T breast was 59 µM; in the assay with CCRF-CEM leukemia, > 100 µM and 38.5 µM; with HOP-62 NSCLC, 18 µM and 94.1 µM.
`COCc1cc2c(s1)C(=O)C1=C(C2=O)C2(C=C(Br)C(=O)C(Br)=C2)CCN1`: the TGI came to 9.41 µM with NCI/ADR-RES ovarian; 27.9 µM in the assay on SNB-75 CNS; 30.6 µM in the assay on HS 578T breast; 29.6 µM in the assay on A498 renal; 3.57 µM in the assay on OVCAR-4 ovarian; 19.3 µM in the assay with IGROV1 ovarian. Also, the TGI with KM12 colon came out at 17.9 µM; with CAKI-1 renal, 34.6 µM; in the assay with CCRF-CEM leukemia, 16.7 µM.
With `COC1=C(OC)C(=O)C(Cc2c(Cl)nc3sccn23)=C(C)C1=O`, the TGI stood at 20 µM in the assay on NCI/ADR-RES ovarian; 50.3 µM in the assay on HS 578T breast; 28.5 µM in the assay on A498 renal; 18.8 µM in the assay on OVCAR-4 ovarian; 29.1 µM in the assay on IGROV1 ovarian; 22.3 µM with KM12 colon. In addition, the TGI in the assay on CAKI-1 renal is 45 µM; in the assay with CCRF-CEM leukemia, 5.44 µM; in the assay on HOP-62 NSCLC, 31.1 µM.
